From US6528532B1, “Urea derivatives as HIV aspartyl protease inhibitors” (Pharmacor Inc., priority 2002, dated 2003)

These molecules were tested against HIV protease (Human immunodeficiency virus type 1 group M subtype B, UniProt P04585) (assay: Enzymatic (FRET fluorometric) assay for determining the inhibition constant (Ki) of compounds targeting the HIV protease). Conditions: FRET substrate (EDANS/DABCYL), equation of Henderson; read-out: Ki.
Format: biochemical
From the text: Enzymatic Assay for Determining the Inhibition Constant (Ki) of Synthetic Compounds Targeting the HIV Protease
This is a fluorometric assay based on the cleavage by protease of a substrate carrying a donor group (EDANS) and an acceptor group (DABCYL) on each side of the cleavage site, interacting together through fluorescence resonance energy transfer (FRET) as described by Matayoshi et al. (Science 247:[…], 1990).
After calculation of Vo and Vi, the inhibition constant (Ki) of the compound is determined using the equation of Henderson: [formula]
where Vo=the enzyme's initial velocity
Vi=the enzyme velocity in the presence of the inhibitory compound,
[I]=inhibitor concentration, [S]=substrate concentration,
Km=Michaelis-Menten constant and Kiapp=apparent Ki
Graphs are traced and the Ki determined using GraphPad Prism software v. 3.0.

First: CC(C)CN([C@H](CO)CCCCNC(=O)N(Cc1ccc(F)cc1)Cc1cccnc1)S(=O)(=O)c1ccc(N)cc1 [Example 70, (2S) 2-N-(4-Aminobenzenesulfonyl)-2-N-isobutyl-6-N-[N′-(4-fluorobenzyl)-N′-(3-picolyl)aminocarbonyl]-2,6-diaminohexanol]
Second: CC(C)CN([C@H](CO)CCCCNC(=O)N(Cc1ccccc1)Cc1ccc(F)cc1)S(=O)(=O)c1ccc(N)cc1 [Example 68, (2S) 2-N-(4-Aminobenzenesulfonyl)-2-N-isobutyl-6-N-[N′-benzyl-N′-(4-fluorobenzyl)aminocarbonyl]-2,6-diaminohexanol]
The Ki of the first is 9.1-fold higher: 30 nM for the first, 3.3 nM for the second.

First: Cc1ccc(S(=O)(=O)N(CC(C)C)[C@@H](CCCCNC(=NC#N)NCc2ccccc2)C(=O)O)cc1 [Example 28, Nα-Isobutyl-Nα-(4-methylbenzenesulfonyl)-Nε-(benzylaminocarbonyl-N-cyanoamidine)-L-lysine]
Second: Cc1ccc(S(=O)(=O)N(CC(C)C)[C@@H](CCCCNC(=S)NCc2ccccc2)C(=O)O)cc1 [Example 16, Nα-Isobutyl-Nα-(4-methylbenzenesulfonyl)-Nε-benzylaminothiocarbonyl-L-lysine]
The Ki of the first is 2.4-fold lower: 63 nM for the first, 152 nM for the second.

Going from `Cc1ccc(S(=O)(=O)N(CC(C)C)C(CCCCNC(=NC#N)NCCc2c[nH]c3ccccc23)C(=O)O)cc1` [Example 29, Nα-Isobutyl-Nα-(4-methylbenzenesulfonyl)-Nε-[2′-(3-indolyl)ethylaminocarbonyl-N-cyanoamidine]-L-lysine] to `Cc1ccc(S(=O)(=O)N(CC(C)C)[C@@H](CCCCNC(=S)NCCc2c[nH]c3ccccc23)C(=O)O)cc1` [Example 15], the Ki rises from 8.2 nM to 111 nM (14-fold).

`Cc1ccc(S(=O)(=O)N(CC(C)C)[C@@H](CCCCNC(=O)N(Cc2ccccc2)Cc2cccc([N+](=O)[O-])c2)C(=O)O)cc1` [Example 55, Nα-Isobutyl-Nα-(4-methylbenzenesulfonyl)-Nε-[N′-benzyl-N′-(3-nitrobenzyl)aminocarbonyl]-L-lysine] and `Cc1ccc(S(=O)(=O)N(CC(C)C)[C@@H](CCCCNC(=O)N(Cc2ccccc2)Cc2ccc([N+](=O)[O-])cc2)C(=O)O)cc1` [Example 56, Nα-Isobutyl-Nα-(4-methylbenzenesulfonyl)-Nε-[N′-benzyl-N′-(4-nitrobenzyl)aminocarbonyl]-L-lysine] are within 1.5-fold of each other in Ki: 1.1 nM for the first, 1.5 nM for the second.

Going from `Cc1ccc(S(=O)(=O)N(CC(C)C)[C@@H](CCCCNC(=O)N(Cc2ccccc2)Cc2ccccc2[N+](=O)[O-])C(=O)O)cc1` [Example 54, Nα-Isobutyl-Nα-(4-methylbenzenesulfonyl)-Nε-[N′-benzyl-N′-(2-nitrobenzyl)aminocarbonyl]-L-lysine] to `Cc1ccc(S(=O)(=O)N(CC(C)C)[C@@H](CCCCNC(=O)N(Cc2ccccc2)Cc2ccccc2N)C(=O)O)cc1` [Example 57, Nα-Isobutyl-Nα-(4-methylbenzenesulfonyl)-Nε-[N′-(2-ninobenzyl)-N′-benzylaminocarbonyl]-L-lysine], the Ki rises from 0.9 nM to 1.7 nM (1.9-fold).

Compared with `CC(C)CN([C@H](CO)CCCCNC(=O)N(Cc1ccc(C(F)(F)F)cc1)Cc1cccc2c1OCO2)S(=O)(=O)c1ccc(N)cc1` [Example 90, (2S) 2-N-(4-Aminobenzenesulfonyl)-2-N-isobutyl-6-N-[N′-(4-trifluoromethylbenzyl)-N′-(2,3-methylenedioxy)benzylaminocarbonyl]-2,6-diaminohexanol], `CC(C)CCN([C@H](CO)CCCCNC(=O)N(Cc1ccc(C(F)(F)F)cc1)Cc1ccc2c(c1)OCO2)S(=O)(=O)c1ccc(N)cc1` [Example 94, (2S) 2-N-(4-Aminobenzenesulfonyl)-2-N-(3-methylbutyl)-6-N-[N′-(4-trifluoromethylbenzyl)-N′-piperonylaminocarbonyl]-2,6-diaminohexanol] is 3-fold lower in Ki: 8.9 nM for the first, 3 nM for the second. The second binds more tightly here.

Going from `Cc1ccc(S(=O)(=O)N(CC(C)C)[C@@H](CCCCNC(=S)N(Cc2ccccc2)Cc2ccccc2)C(=O)O)cc1` [Example 37, Nα-Isobutyl-Nα-(4-methylbenzenesulfonyl)-Nε-(N′,N′-dibenzylaminothiocarbonyl)-L-lysine] to `Cc1ccc(S(=O)(=O)N(CC(C)C)[C@H](CO)CCCCNC(=S)N(Cc2ccccc2)Cc2ccccc2)cc1` [Example 34, (2S) 2-N-Isobutyl-2-N-(4-methylbenzenesulfonyl)-6-N-(N′,N′-dibenzylaminothiocarbonyl)-2,6-diaminohexanol], the Ki rises from 12 nM to 78 nM (6.5-fold). The first binds more tightly here.

First: CC(C)CN([C@H](CO)CCCCNC(=O)N[C@@H](Cc1c[nH]c2ccccc12)C(=O)O)S(=O)(=O)c1ccc(N)cc1 [Example 65, (2S,2′S) 2-N-(4-Aminobenzenesulfonyl)-2-N-isobutyl-6-N-(S-tryptophanyl-N′-carbonyl)-2,6-diaminohexanol]
Second: CC(C)CN([C@H](CO)CCCCNC(=O)N(Cc1ccccc1)Cc1cccnc1)S(=O)(=O)c1ccc(N)cc1 [Example 50, (2S) 2-N-(4-Aminobenzenesulfonyl)-2-N-isobutyl-6-N-[N′-benzyl-N′-(3-picolyl)aminocarbonyl]-2,6-diaminohexanol]
The Ki of the first is higher: greater than 300 nM for the first, 34 nM for the second. The second binds more tightly here.

First: CC(C)CN([C@@H](CCCCNC(=O)N(Cc1ccccc1)Cc1ccncc1)C(=O)O)S(=O)(=O)c1ccc(N)cc1 [Example 48, Nα-(4-Aminobenzenesulfonyl)-Nα-isobutyl-Nε-[N′-benzyl-N′-(4-picolyl)aminocarbonyl]-L-lysine]
Second: Cc1ccc(S(=O)(=O)N(CC(C)C)[C@@H](CCCCNC(=O)N(Cc2ccccc2)Cc2ccncc2)C(=O)O)cc1 [Example 38, Nα-Isobutyl-Nα-(4-methylbenzenesulfonyl)-Nε-[N′-benzyl-N′-(4-picolyl)aminocarbonyl]-L-lysine]
The Ki of the first is 3.2-fold higher: 12 nM for the first, 3.7 nM for the second.

Compared with `CC(C)CN([C@@H](CCCCNC(=O)N(Cc1ccccc1)Cc1ccccc1)C(=O)O)S(=O)(=O)c1ccc(N)cc1` [Example 36, Nα-(4-Aminobenzenesulfonyl)-Nα-isobutyl-Nε-(N′,N′-dibenzylaminocarbonyl)-L-lysine], `CC(C)CN([C@H](CO)CCCCNC(=O)N(Cc1ccccc1)Cc1ccccc1)S(=O)(=O)c1ccc(N)cc1` [Example 41, (2S) 2-N-(4-Aminobenzenesulfonyl)-2-N-isobutyl-6-N-(N′,N′-dibenzylaminocarbonyl)-2,6-diaminohexanol] is 6.7-fold higher in Ki: 1.8 nM for the first, 12 nM for the second.

Compared with `CCC(C)CN(C(CO)CCCCNC(=O)N(Cc1ccccc1)Cc1cccc2c1OCO2)S(=O)(=O)c1ccc(N)cc1` [Example 97, (2S) 2-N-(4-Aminobenzenesulfonyl)-2-N-(2-methylbutyl)-6-N-[N′-benzyl-N′-(2,3-methylenedioxy)benzylaminocarbonyl]-2,6-diaminohexanol], `COc1ccc(CN(Cc2ccc3c(c2)OCO3)C(=O)NCCCC[C@@H](CO)N(CC(C)C)S(=O)(=O)c2ccc(N)cc2)cc1` [Example 83, (2S) 2-N-(4-Aminobenzenesulfonyl)-2-N-isobutyl-6-N-[N′-(4-methoxybenzyl)-N′-piperonylaminocarbonyl]-2,6-diaminohexanol] is 9.5-fold lower in Ki: 21 nM for the first, 2.2 nM for the second. The second binds more tightly here.

`Cc1ccc(S(=O)(=O)N(CC(C)C)[C@@H](CCCCNC(=O)NCCc2ccccc2)C(=O)O)cc1` [Example 21, Nα-Isobutyl-Nα-(4-methylbenzenesulfonyl)-Nε-(phenethylaminocarbonyl)-L-lysine] and `Cc1ccc(S(=O)(=O)N(CC(C)C)[C@@H](CCCCNC(=O)N[C@@H]2CCc3ccccc32)C(=O)O)cc1` [Example 24, (1S,1′R) Nα-Isobutyl-Nα-(4-methylbenzenesulfonyl)-Nε-(indanyl-1′-aminocarbonyl)-S-lysine] are within 1.5-fold of each other in Ki: 167 nM for the first, 196 nM for the second.

Going from `Cc1ccc(S(=O)(=O)N(CC(C)C)[C@H](CO)CCCCNC(=O)N(Cc2ccccc2)Cc2ccccc2)cc1` [Example 33, (2S) 2-N-Isobutyl-2-N-(4-methylbenzenesullonyl)-6-N-(N′,N′-dibenzylaminocarbonyl)-2,6-diaminohexanol] to `Cc1ccc(S(=O)(=O)N(CC(C)C)[C@@H](CCCCNC(=O)N(Cc2ccccc2)Cc2cccnc2)C(=O)O)cc1` [Example 42, Nα-Isobutyl-Nα-(4-methylbenzenesulfonyl)-Nε-[N′-benzyl-N′-(3-picolyl)aminocarbonyl]-L-lysine], the Ki falls from 17 nM to 3.7 nM (4.6-fold).

`CC(C)CN([C@H](CO)CCCCNC(=O)N(Cc1ccc([N+](=O)[O-])cc1)Cc1ccc2c(c1)OCO2)S(=O)(=O)c1ccc(N)cc1` [Example 84, (2S) 2-N-(4-Aminobenzenesulfonyl)-2-N-isobutyl-6-N-[N′-(4-nitrobenzyl)-N′-piperonylaminocarbonyl]-2,6-diaminohexanol] and `CC(C)CCN([C@H](CO)CCCCNC(=O)N(Cc1ccc([N+](=O)[O-])cc1)Cc1ccc2c(c1)OCO2)S(=O)(=O)c1ccc(N)cc1` [Example 89, (2S) 2-N-(4-Aminobenzenesulfonyl)-2-N-(3-methylbutyl)-6-N-[N′-(4-nitrobenzyl)-N′-piperonylaminocarbonyl]-2,6-diaminohexanol] are within 1.5-fold of each other in Ki: 2 nM for the first, 2.2 nM for the second.

Going from `COc1ccc(CN(Cc2ccncc2)C(=O)NCCCC[C@@H](C(=O)O)N(CC(C)C)S(=O)(=O)c2ccc(N)cc2)cc1` [Example 49, Nα-(4-Aminobenzenesulfonyl)-Nα-isobutyl-Nε-[N′-(4-methoxybenzyl)-N′-(4-picolyl)aminocarbonyl]-L-lysine] to `CC(C)CN([C@H](CO)CCCCNC(=O)N(CCc1cccs1)Cc1ccc(F)cc1)S(=O)(=O)c1ccc(N)cc1` [Example 69, (2S) 2-N-(4-Aminobenzenesulfonyl)-2-N-isobutyl-6-N-[N′-(4-fluorobenzyl)-N′-(2-thiophenethyl)aminocarbonyl]-2,6-diaminohexanol], the Ki rises from 12 nM to 34 nM (2.8-fold). The first binds more tightly here.

With `CC(C)CN([C@H](CO)CCCCNC(=O)N(Cc1cccc(F)c1)C1CCCCC1)S(=O)(=O)c1ccc(N)cc1` [Example 71, (2S) 2-N-(4-Aminobenzenesulfonyl)-2-N-isobutyl-6-N-[N′-cyclohexyl-N′-(3-fluorobenzyl)aminocarbonyl]-2,6-diaminohexanol] the Ki was 235 nM.
